One data set deals with T1, Aβ1-42 fibrils (Homo sapiens, UniProt P05067).
T1 construct: synthetic Aβ1-42 peptide (1 mg) (Bachem, Torrance, CA); purchased Bachem, Torrance, CA; host or cells: chemical synthesis
Put plainly: Saturation radioligand binding to preformed Aβ1-42 fibrils. The procedure:
Aβ1-42 fibrils were obtained using literature procedures described earlier. Briefly, synthetic Aβ1-42 peptide (1 mg) (Bachem, Torrance, CA) was initially dissolved in DMSO (50 μL) and diluted with the addition of mQ-H2O (925 μL). Finally, 1 M Tris-HCl (25 μL; pH 7.6) was added to the peptide solution to obtain a final peptide concentration (222 μM; 1 mg/mL). Thereafter, the peptide solution was incubated for 30 h at 37°C with shaking at 1,000 rpm in an Eppendorf Thermomixer. The fibril formation was confirmed by ThioT fluorescence. For determining the concentration of fibrils, the fibril reaction mix was centrifuged at 15,000×g for 15 min to separate the fibrils from the monomer. The concentration of Aβ monomer in the supernatant was determined in a BCA protein assay. […] The exact hot:cold (^18F-7B:7A) ratio was measured in each experiment by counting an aliquot of a sample (2 μL) of the radioligand preparation in a scintillation counter. Binding of ^18F-7B to human brain homogenates was assessed by incubating samples of insoluble fraction (5-μg insoluble protein/well) from AD subjects, with increasing concentrations of ^18F-7B (1.5 to 100 nM). Nonspecific binding was determined in parallel experiments utilizing 7A (2.5 μM) for Aβ1-42 fibrils and 7A (5 μM) for AD tissue as a competitor. […] Bmax values were calculated in pmol/gram wet weight of brain tissue.

In the next data set the target is Aβ plaques (Homo sapiens, UniProt P05067). Put plainly: MicroPET/CT imaging in APP/PS1 versus WT mice. It counts as in vivo. The procedure: Following anesthesia, the mice were secured with their heads in the center of the field of view, fixed in the scanner in a prone head-first position (HFP), and placed in an acrylic-imaging tray. MicroPET imaging was performed using Inveon PET/CT scanner (Siemens Medical Solutions, Malvern, PA, USA) following intravenous tail-vein injection of HPLC-purified [^18F]7B (12.95 MBq; 28 μL; 35% ethanol in saline) employing the catheter system in a slow bolus, followed by flushing with isotonic saline solution. PET dynamic data acquisition was performed over 75 min starting immediately following injection of the tracer. The emission data were normalized and corrected for attenuation, scatter, and decay. Attenuation correction was obtained using the co-registered CT data. The image volume consisted of 256 × 256 × 159 voxels, with a size of 0.39 × 0.39 × 0.8 mm^3 per voxel for the Inveon scanner. For anatomical visualization, PET images were co-registered with CT images from an Inveon PET/CT scanner. For analysis, brain uptake (Bq/L) was normalized to injected dose and weight of animals. […] Additionally, SUV values in time-activity curves were normalized to the average activity measured in those regions between 1 to 2 min post-injection. All image data were processed and analyzed using Inveon Research Workspace 4.1 software (Siemens, Malvern, PA, USA). […]

The nature of the next data set: Lipophilicity (log P). It counts as physicochemical. The conditions noted are these: octanol/water.

Chain of Aβ plaques (P05067 672-711 limits assumed): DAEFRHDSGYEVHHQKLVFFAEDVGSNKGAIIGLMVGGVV
T1 sequence (P05067 672-713 limits assumed): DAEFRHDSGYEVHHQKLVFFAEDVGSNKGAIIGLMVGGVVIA

For orientation: Kd means a measure of binding affinity in units of concentration. For orientation: logP means the decadic logarithm of the partition coefficient of the neutral form, usually between octanol and water. With `CN(C)c1ccc(/C=C/c2nc3ccc(OCC[18F])cc3s2)cn1` [^18F-7B, (E)-5-(2-(6-(2-[^18F]-fluoroethoxy)-benzo[d]thiazol-2-yl)vinyl)-N,N-dimethylpyridin-2-amine], the Bmax on Aβ1-42 fibrils stood at 6 pmol/nmol Aβ. The Kd on Aβ1-42 fibrils (one-site model) was found to be 61 nM. For the same molecule, the “retention in brain/frontal cortex of transgenic mice compared with WT” value at Aβ plaques (APP/PS1 vs age-matched WT mice, 22.6 months, dynamic PET 1 to 75 min, i.v.) is reported as “significantly higher retention”. Moreover, the “retention in extracerebral regions” value on Aβ plaques (nasal and eye cavities, microPET/CT) is given as “considerable retention in extracerebral regions”. Also, in “Lipophilicity (log P)”, the logP is 1.3.

These data come from article PMC4478171, “Synthesis, characterization, and preclinical validation of a PET radiopharmaceutical for interrogating Aβ (β-amyloid) plaques in Alzheimer’s disease” (EJNMMI Research, 2015).
